Reference: ChEMBL document CHEMBL1145600, “Molecular features crucial to the activity of pyrimidine benzamide-based thrombopoietin receptor agonists” (Bioorg Med Chem Lett, 2008)

Molecular target: T1, Thrombopoietin receptor (Homo sapiens) (UniProt P40238)
T1 sequence (whole entry): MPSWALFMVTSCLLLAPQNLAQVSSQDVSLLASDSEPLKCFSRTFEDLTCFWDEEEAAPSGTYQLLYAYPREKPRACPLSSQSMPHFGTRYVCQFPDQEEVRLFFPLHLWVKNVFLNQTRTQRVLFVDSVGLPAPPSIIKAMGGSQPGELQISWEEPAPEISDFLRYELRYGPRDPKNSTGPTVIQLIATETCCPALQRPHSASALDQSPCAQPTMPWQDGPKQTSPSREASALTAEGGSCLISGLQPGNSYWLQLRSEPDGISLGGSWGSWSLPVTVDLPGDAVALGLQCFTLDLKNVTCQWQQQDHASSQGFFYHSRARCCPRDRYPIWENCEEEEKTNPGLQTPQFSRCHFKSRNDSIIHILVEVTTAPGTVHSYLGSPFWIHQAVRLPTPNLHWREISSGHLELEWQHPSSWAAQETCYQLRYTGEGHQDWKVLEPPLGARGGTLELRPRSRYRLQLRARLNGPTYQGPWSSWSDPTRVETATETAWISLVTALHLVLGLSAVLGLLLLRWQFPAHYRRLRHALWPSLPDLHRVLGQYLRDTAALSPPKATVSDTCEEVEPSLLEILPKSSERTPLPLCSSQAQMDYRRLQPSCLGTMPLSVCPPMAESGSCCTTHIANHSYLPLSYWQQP
Test: Agonist activity at TPO receptor at 10 uM
Format: functional

Activity [%] | SMILES
58 | O=C(Nc1nc(-c2ccccc2F)cs1)c1ccc(Nc2ccncn2)cc1
45 | O=C(Nc1nc(-c2cccc(F)c2)cs1)c1ccc(Nc2ccncn2)cc1
0 | Nc1nc(-c2c(F)cccc2F)cs1
38 | O=C(Nc1nc(-c2ccccc2C(F)(F)F)cs1)c1ccc(Nc2ccncn2)cc1
0 | O=C(Nc1nc(-c2c(F)cccc2F)cs1)c1ccc(Nc2ccncn2)cc1

Molecular target: T2, Thrombopoietin receptor (Homo sapiens, UniProt P40238)
T2 sequence (P40238 whole entry): T1 sequence (whole entry)
Test: Agonist activity at TPO receptor
Format: functional

EC50 [nM] | SMILES
260 | Nc1nc(-c2ccc(C(F)(F)F)cc2F)cs1
180 | Cc1sc(N)nc1-c1ccc(F)c(C(F)(F)F)c1
540 | Cc1sc(N)nc1-c1cccc(C(F)(F)F)c1F
57 | Nc1nc(-c2cccc(C(F)(F)F)c2F)cs1
> 10000 | Nc1nc(-c2c(F)cccc2F)cs1
700 | Nc1nc(-c2cccc(C(F)(F)F)c2F)c(F)s1
1500 | O=C(Nc1nc2c(s1)COc1c(F)cccc1-2)c1ccc(Nc2ccncn2)cc1
520 | O=C(Nc1nc2c(s1)COc1ccccc1-2)c1ccc(Nc2ccncn2)cc1
530 | O=C(Nc1nc2c(s1)COc1c(Cl)cccc1-2)c1ccc(Nc2ccncn2)cc1
5200 | Nc1nc(-c2cc(C(F)(F)F)ccc2F)cs1
6800 | Nc1nc(-c2ccccc2F)cs1
100 | Nc1nc(-c2ccc(F)c(C(F)(F)F)c2)cs1
89 | Nc1nc(-c2ccc(F)c(C(F)(F)F)c2)c(F)s1
32 | Nc1nc(-c2cccc(OC(F)(F)F)c2F)cs1
